Clc1cc(Cl)cc(Cl)c1
solubility (mole fraction)
Conditions | in acetone | in cyclohexane | in ethyl acetate | in isobutanol | in isopropanol | in n-butanol | in n-propanol | in toluene
273.15 K | 0.0419 | – | 0.0928 | 0.0246 | 0.0144 | 0.036 | 0.0211 | 0.169
275.65 K | 0.0472 | – | 0.102 | 0.028 | 0.0167 | 0.0406 | 0.0238 | 0.184
278.15 K | 0.0524 | – | 0.113 | 0.0321 | 0.0195 | 0.0467 | 0.0273 | 0.199
280.65 K | 0.0581 | 0.131 | 0.123 | 0.0367 | 0.0225 | 0.0529 | 0.0313 | 0.218
283.15 K | 0.0644 | 0.147 | 0.137 | 0.042 | 0.0256 | 0.0592 | 0.0359 | 0.24
285.65 K | 0.0718 | 0.165 | 0.151 | 0.0478 | 0.0297 | 0.0679 | 0.0406 | 0.26
288.15 K | 0.079 | 0.186 | 0.164 | 0.0545 | 0.0339 | 0.0767 | 0.0466 | 0.287
290.65 K | 0.0876 | 0.207 | 0.179 | 0.0616 | 0.0384 | 0.0852 | 0.0532 | 0.311
293.15 K | 0.0963 | 0.231 | 0.195 | 0.0708 | 0.0441 | 0.0969 | 0.0598 | 0.337
295.65 K | 0.106 | 0.255 | 0.213 | 0.0804 | 0.0509 | 0.107 | 0.0677 | 0.368
298.15 K | 0.116 | 0.286 | 0.234 | 0.091 | 0.058 | 0.122 | 0.0764 | 0.399
300.65 K | 0.129 | 0.318 | 0.253 | 0.102 | 0.0649 | 0.136 | 0.0853 | 0.427
303.15 K | 0.14 | 0.35 | 0.274 | 0.117 | 0.074 | 0.15 | 0.0973 | 0.463
305.65 K | 0.154 | 0.391 | 0.298 | 0.131 | 0.0849 | 0.166 | 0.109 | 0.5
308.15 K | 0.171 | 0.434 | 0.325 | 0.147 | 0.0969 | 0.185 | 0.122 | 0.539
310.65 K | 0.192 | 0.481 | 0.352 | 0.166 | 0.11 | 0.207 | 0.138 | 0.575
313.15 K | 0.213 | 0.528 | 0.38 | 0.191 | 0.127 | 0.233 | 0.158 | 0.619
